Drawing on ChEMBL document CHEMBL1152180, “Novel anthraquinone derivatives: synthesis via click chemistry approach and their induction of apoptosis in BGC gastric cancer cells via reactive oxygen species (ROS)-dependent mitochondrial pathway” (Bioorg Med Chem Lett, 2008), this text covers IC50 and Activity for three molecules.

Test [1] in a line: Cytotoxicity against human BGC cells by MTT assay. It counts as functional, cell-based. (Formazan colour is commonly taken as a measure of viable cells.)
Test [2] relates to BGC. As to the kind of experiment: Induction of apoptosis in human BGC cells assessed as loss of mitochondrial membrane potential at 10 uM by JC-1 staining based laser confocal microscopy. It counts as functional, cell-based.
Test [3] deals with BGC. Kind of test: Induction of apoptosis in human BGC cells assessed as loss of mitochondrial membrane potential at 10 uM by flow cytometry. It counts as functional, cell-based. (In general: In flow cytometry, cells or beads pass a laser one at a time.)
Test [4] has as its system BGC. As to the kind of experiment: Induction of apoptosis in human BGC cells assessed as morphological changes at 12.5 uM by Hoechst staining based laser confocal microscopy. The format is functional, cell-based.
The nature of test [5]: Induction of apoptosis in human BGC cells assessed as early stage apoptotic cell count at 25 uM after 24 hrs using Annexin-V-FITC PI stain by flow cytometry. It counts as functional.
A short description of test [6]: Induction of apoptosis in human BGC cells assessed as late stage apoptotic cell count at 25 uM after 24 hrs using Annexin-V-FITC PI stain by flow cytometry. It counts as functional.
The nature of test [7]: Induction of apoptosis in human BGC cells assessed as non apoptotic cell count at 25 uM after 24 hrs using Annexin-V-FITC PI stain by flow cytometry. The format is functional.
A short description of test [8]: Induction of apoptosis in human BGC cells assessed as dead cell count at 25 uM after 24 hrs using Annexin-V-FITC PI stain by flow cytometry. It counts as functional.
Test [9] relates to BGC. As to the kind of experiment: Induction of apoptosis in human BGC cells assessed as bursting of ROS in mitochondria at 5 uM by DCFH-DA based fluorescence scanning confocal microscopy. The format is functional, cell-based.
The subject of test [10] is BGC. As to the kind of experiment: Induction of apoptosis in human BGC cells assessed as bursting of ROS in mitochondria at 5 uM by flow cytometry. It counts as functional, cell-based.
Test [11] deals with BGC. As to the kind of experiment: Induction of apoptosis in human BGC cells assessed as bursting of ROS in mitochondria at 5 uM in presence of N-acetyl-cysteine. The format is functional.
The nature of test [12]: Induction of apoptosis in human BGC cells assessed as accumulation at subG1 at 25 uM after 24 hrs by flow cytometry analysis. The format is functional.

The source made the active and inactive calls. The calls are words filed in the database; no cut-off is given here.

A word on the IC50: it is the midpoint of a concentration-inhibition curve. In test [1], `C[N+]1(CCCn2cc(COc3cccc4c3C(=O)c3cccc(OCc5cn(CCC[N+]6(C)CC6)nn5)c3C4=O)nn2)CC1` had a concentration for half-maximal inhibition (IC50) of 9.31 µM. Besides, the result in the test on BGC [2] was Active. In addition, the Activity entry with BGC [3] is “Dose-dependent effect”.

Molecule `C[N+]1(CCn2cc(COc3cccc4c3C(=O)c3cccc(OCc5cn(CC[N+]6(C)CCCCC6)nn5)c3C4=O)nn2)CCCCC1.[I-].[I-]` yielded an IC50 in test [1] of 4.02 µM. Moreover, the outcome in the test with BGC [4], with BGC [9] and with BGC [2] was Active. In addition, the Activity in test [5] was 22.8%; in [6], 1%; in [7] it was 74.2%; in test [8], 2.1%; in the test on BGC [10], “Dose-dependent effect”; in the test with BGC [3], “Dose-dependent effect”. Besides, the Activity in [12] is 39.4%. Further, in the test with BGC [11], the outcome was inactive.

`C[N+]1(CCn2cc(COc3cccc4c3C(=O)c3cccc(OCc5cn(CC[N+]6(C)CCCC6)nn5)c3C4=O)nn2)CCCC1`: in test [1], half-maximal inhibition (IC50) required 6.52 µM. The outcome with BGC [2] was Active. The Activity result with BGC [3] was “Dose-dependent effect”.
